Test results taken from patent publication US20060281807A1, “Quassinoid compositions for the treatment of cancer and other proliferative diseases” (Tapestry Pharmaceuticals, Inc., priority 2005, published 2006).

Assays:
[1] = system: Colon 38 (murine colon adenocarcinoma); experiment: Disk diffusion assay, zone of inhibition, Colon 38; zone differentials, potency and product; format: cell-based; set-up: key to C38ΔL1210 / C38ΔCFU: difference of zone of inhibition values, in zone units; settings: for Sum: C38ΔL1210 plus C38ΔCFU; for C38ΔL1210 / C38ΔCFU: difference between zone of inhibition values; for C38ΔL1210: Colon38 vs L1210 leukemia; for C38ΔCFU: Colon38 vs normal cell CFU-GM; for Product: potency multiplied by zone differentials
Experimental: A disk diffusion assay was performed to define the differential cell killing ability of 15-O-(3′-hydroxy-3′-isopropyl-4′-methylpentanoyl)bruceolide. Seven cell types were assayed: L1210 (ATCC CCL-219) (murine leukemia), CCRF-CEM (ATCC CCL-119) (human leukemia), Colon 38 (murine colon adenocarcinoma), HCT116 (ATCC CCL-247) (human colorectal carcinoma), H125 (human lung carcinoma). The murine and human granulocyte/macrophage progenitor cell line (CFU-GM), served as controls.
Colon 38 cells (about 1 gram) were cut into small fragments in 15 mL of Hank's Balanced Salt Solution (HBSS) over a 100-mesh sieve and gently forced through by the scissors with HBSS constantly perfusing the sieve. The resulting material was then drawn into and out of a 5 mL syringe without a needle to further disperse the cell clumps. The cell solution was diluted and plated in 0.3% agarose in DMEM plus 10% heat-inactivated Bovine Calf Serum (BCS). For plating of all of the cell types (except controls), the 60 mm plates were first prepared with a hard agar bottom layer (0.6% agar in RPMI-1640 plus 15% BCS).
A 15 μl sample of each compound was dropped onto a 6.5 mm disk (Baxter filter disks). The disks were allowed to dry overnight and then placed close to the edge of a petri dish. Depending upon the cell type, the dishes were incubated for 7 to 10 days, and examined by an inverted stereo-microscope (10×) for measurement of the zone of inhibition. The zone of inhibition was measured from the edge of the filter disk to the beginning of normal-sized colony formation. The diameter of the filter disk, 6.5 mm, was arbitrarily taken as a zone of 200 units. Compounds that were selective for killing solid tumors, as compared to leukemia or normal cells (“solid tumor selective”) were defined as those compounds which produced a difference in zones between solid tumor cells and either normal or leukemia cells of at least 250 units. The results of this analysis are set forth in Table 4, which illustrates the relative diameters of the zones of inhibition by various drugs on the growth of the respective cell types at various drug dilutions.
The degree of differential sensitivity of several inventive compounds was compared with respect to the Colon38 cell line, the L1210 cell line, and the control CFU-GM cell lines. The degree of differential sensitivity was estimated by calculating the difference between the zone of inhibition values, as determined in Example 6, for the solid tumor compared to either the leukemia (C38ΔL1210) or normal cell (C38ΔCFU).
The potency of each of several inventive compounds was determined by identifying the dilution required to yield an average zone of inhibition of 500 units for the Colon38 cell type. Then the potency and the zone differentials were multiplied to define a “product” (see Table 5), which can be used to rank the compounds tested for their potential for further development; the greater the product value the greater the probability of useful chemotherapeutic utility.

[2] = system: SK-N-AS; experiment: MTT cytotoxicity assay (% kill), SK-N-AS; format: cell-based, human; settings: 1.0 μg/mL, MTT after five days
Experimental: (§1) The following human tumor cell lines were obtained and cultured in sextuplicate microwells at 37° C. and 5% CO2 in humidified air and in 10% FBS in Eagles MEM: SK—N—FI, SK—N-AS, LS-174T, WiDr, HuTu-80, MCF7, NCI-AR, MES-Sar, and PL-45. Cells from each cell line were separately treated with an amount of one of the compounds of Formula I, II, or III (see Table 1). Cells were exposed to each compound (0.1 μg/mL or 1.0 μg/mL) for one hour or 24 hours, rinsed with drug-free media, and incubated for an additional five days. The number of viable cells after five days was measured using an MTT (3-(4,5-dimethylthiazol-2-yl)-2,5-diphenyltetrazolium bromide) assay (see, e.g., Mosmann, J. Immunol. Methods, 65(1-2), 55-63 (1983)).
(§2) The cytotoxicity of each drug was determined and expressed as the percent of cells killed (“% kill”).

[3] = system: LS-174T; experiment: MTT cytotoxicity assay (% kill), LS-174T; format: cell-based, human; settings: 1.0 μg/mL, MTT after five days
Experimental: as §1, §2

| SMILES | Sum [1] | C38ΔL1210 [1] | C38ΔCFU [1] | Product [1] | % Kill, SK-N-AS ([2]; 1 h exposure) [%] | % Kill, SK-N-AS ([2]; 24 h exposure) [%] | % Kill, LS-174T ([3]; 1 h exposure) [%] | % Kill, LS-174T ([3]; 24 h exposure) [%] |
| --- | --- | --- | --- | --- | --- | --- | --- | --- |
| COC(=O)C12OCC34C(CC5C(C)=C(O)C(=O)CC5(C)C3C(O)C1OC(=O)OCC1COC(C)(C)O1)OC(=O)C(OC(=O)OCC1COC(C)(C)O1)C24 (stereo not drawn) [12,15-O,O-bis(Solketyloxycarbonyl)-bruceolide] | 1000 | 400 | 600 | 2000 | 3 | 5 | – | – |
| C=CCOC(=O)OC1C(=O)OC2CC3C(C)=C(O)C(=O)CC3(C)C3C(O)C(OC(=O)OCC=C)C4(C(=O)OC)OCC23C14 (stereo not drawn) [12,15-O,O-bis-(allyloxycarbonyl)-bruceolide] | 650 | 300 | 350 | 650 | 0 | 2 | – | – |
| COC(=O)C12OCC34C(CC5C(C)=C(O)C(=O)CC5(C)C3C(O)C1OC(=O)C=C(C)C(C)C)OC(=O)C(OC(=O)C=C(C)C(C)C)C24 (stereo not drawn) [12-O-(3,4-dimethyl-2-pentenoyl)-bruceantin] | – | – | – | – | 0 | 0 | – | – |
| COC(=O)[C@@]12OC[C@]34[C@H]([C@@H](O)[C@@H]1O)[C@@]1(C)CC(=O)C(O)=C(C)[C@@H]1C[C@H]3OC(=O)[C@H](OC(=O)C1=CCCCC1)[C@@H]24 [15-O-(1′-cyclohexenoyl)-bruceolide] | 550 | 200 | 350 | 550 | 0 | 5 | 12 | 35 |
| COC(=O)C12OCC34C(CC5C(C)=C(O)C(=O)CC5(C)C3C(O)C1O)OC(=O)C(OC(=O)C1=CCCC1)C24 (stereo not drawn) [15-O-(1′-cyclopentenoyl)-bruceolide] | 750 | 350 | 400 | 750 | 0 | 0 | 0 | 8 |
| COC(=O)C12OCC34C(CC5C(C)=C(O)C(=O)CC5(C)C3C(O)C1O)OC(=O)C(OC(=O)c1cc(C)oc1C)C24 (stereo not drawn) [15-O-(2′,5′-dimethyl-3′-furoyl)-bruceolide] | 1050 | 500 | 550 | 4200 | 0 | 34 | 12 | 53 |
| COC(=O)[C@@]12OC[C@]34[C@H]([C@@H](O)[C@@H]1O)[C@@]1(C)CC(=O)C(O)=C(C)[C@@H]1C[C@H]3OC(=O)[C@H](OC(=O)CC(C)(C)C)[C@@H]24 [15-O-(3′,3′-dimethylbutanoyl)-bruceolide] | 800 | 450 | 350 | 3200 | 0 | 62 | 7 | 60 |
| CCC(=CC(=O)O[C@H]1C(=O)O[C@@H]2C[C@H]3C(C)=C(O)C(=O)C[C@]3(C)[C@H]3[C@@H](O)[C@H](O)[C@@]4(C(=O)OC)OC[C@]32[C@@H]14)CC [15-O-(3′-ethyl-2′-pentene-oyl)-brucelide] | – | – | – | – | 0 | 66 | 24 | 64 |
| CCC(O)(CC)CC(=O)OC1C(=O)OC2CC3C(C)=C(O)C(=O)CC3(C)C3C(O)C(O)C4(C(=O)OC)OCC23C14 (stereo not drawn) [15-O-(3′-ethyl-3′-hydroxypentanoyl)-bruceolide] | 850 | 350 | 500 | 3400 | 6 | 71 | 10 | 50 |
| COC(=O)C12OCC34C(CC5C(C)=C(O)C(=O)CC5(C)C3C(O)C1O)OC(=O)C(OC(=O)CC(C)(C)O)C24 (stereo not drawn) [15-O-(3′-hydroxy-3′-methylbutanoyl)-bruceolide] | 950 | 400 | 550 | 2850 | – | – | 29 | 64 |
| CCCCCCCCC=CCCCCCCCC(=O)OC1C(=O)OC2CC3C(C)=C(O)C(=O)CC3(C)C3C(O)C(O)C4(C(=O)OC)OCC23C14 (stereo not drawn) [15-O-(cis-9′-octadecenoyl)-bruceolide] | – | – | – | – | 0 | 0 | 4 | 13 |
| COC(=O)[C@@]12OC[C@]34[C@H]([C@@H](O)[C@@H]1O)[C@@]1(C)CC(=O)C(O)=C(C)[C@@H]1C[C@H]3OC(=O)[C@H](OC(=O)C=C1CCCCC1)[C@@H]24 [15-O-(cyclohexylideneacetyl)-bruceolide] | 700 | 350 | 350 | 2800 | – | – | 13 | 63 |
| COC(=O)C12OCC34C(CC5C(C)=C(O)C(=O)CC5(C)C3C(O)C1O)OC(=O)C(OC(=O)OCC1COC(C)(C)O1)C24 (stereo not drawn) [15-O-(solketyloxycarbonyl)-bruceolide] | 950 | 400 | 550 | 1900 | 0 | 28 | – | – |
| COC(=O)[C@@]12OC[C@]34[C@H]([C@@H](O)[C@@H]1O)[C@@]1(C)CC(=O)C(O)=C(C)[C@@H]1C[C@H]3OC(=O)[C@H](OC(=O)CC1(O)CCCC1)[C@@H]24 [15-O-[(1′-hydroxycyclopentyl)-acetyl]-bruceolide] | 1300 | 600 | 700 | 5200 | – | – | 36 | 65 |
| COC(=O)C12OCC34C(CC5C(C)=C(O)C(=O)CC5(C)C3C(O)C1O)OC(=O)C(OC(=O)C=Cc1ccccc1)C24 (stereo not drawn) [15-O-cinnamyl-bruceolide] | – | – | – | – | 0 | 61 | 16 | 64 |
